From US10662205B2, “Cyclic boronic acid ester derivatives and therapeutic uses thereof” (priority 2014, dated 2020)
Like-named read-outs stand apart in the source and are kept apart here.

Columns and labels:
KP1005 (CTX-M-14) [1] = assay: Aztreonam potentiation (MPC@4); type: cell-based; conditions: aztreonam 4 μg/mL
KP1009 (CTX-M-15) [2] = assay: Aztreonam potentiation (MPC@4); type: cell-based; conditions: aztreonam 4 μg/mL
ec308 (SHV-5) [3] = assay: Aztreonam potentiation (MPC@4); type: cell-based; conditions: aztreonam 4 μg/mL
KP1010 (SHV-12) [4] = assay: Aztreonam potentiation (MPC@4); type: cell-based; conditions: aztreonam 4 μg/mL
KP1004 (KPC-2) [5] = assay: Aztreonam potentiation (MPC@4); type: cell-based; conditions: aztreonam 4 μg/mL
ECL1002 [6] = assay: Aztreonam potentiation (MPC@4); type: cell-based; conditions: aztreonam 4 μg/mL
EC1010 (CMY-6) [7] = assay: Aztreonam potentiation (MPC@4); type: cell-based; conditions: aztreonam 4 μg/mL
KP1005 (CTX-M-14) [8] = assay: Tigemonam potentiation (MPC@4); type: cell-based; conditions: tigemonam 4 μg/mL
KP1009 (CTX-M-15) [9] = assay: Tigemonam potentiation (MPC@4); type: cell-based
ec308 (SHV-5) [10] = assay: Tigemonam potentiation (MPC@4); type: cell-based; conditions: tigemonam 4 μg/mL
KP1010 (SHV-12) [11] = assay: Tigemonam potentiation (MPC@4); type: cell-based
ec302 (TEM-10) [12] = assay: Tigemonam potentiation (MPC@4); type: cell-based; conditions: tigemonam 4 μg/mL
ECL1002 [13] = assay: Tigemonam potentiation (MPC@4); type: cell-based; conditions: tigemonam 4 μg/mL
EC1010 (CMY-6) [14] = assay: Tigemonam potentiation (MPC@4); type: cell-based; conditions: tigemonam 4 μg/mL; EC1010, CMY-6
CTX-M-14 = CTX-M-14 (Escherichia coli, UniProt Q9L5C7); assay: Inhibition of nitrocefin cleavage by purified enzyme (Ki); type: biochemical; conditions: nitrocefin reporter substrate; 10 min preincubation; read-out: Ki CTX-M-14, NCF
Chain of CTX-M-14 (Q9L5C7 29-291): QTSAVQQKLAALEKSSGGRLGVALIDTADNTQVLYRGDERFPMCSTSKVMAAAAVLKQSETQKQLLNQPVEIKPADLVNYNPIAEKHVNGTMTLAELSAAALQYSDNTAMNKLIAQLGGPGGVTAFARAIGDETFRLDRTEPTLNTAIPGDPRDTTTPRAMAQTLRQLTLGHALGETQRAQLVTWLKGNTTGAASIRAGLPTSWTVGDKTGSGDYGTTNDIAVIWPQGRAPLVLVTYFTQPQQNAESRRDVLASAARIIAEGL
Protocol: (§1) Ki values of inhibition of purified class A, C and D enzymes were determined spectrophotometrically using nitrocefin as reporter substrate. Purified enzymes were mixed with various concentrations of inhibitors in reaction buffer and incubated for 10 min at room temperature. Nitrocefin was added and substrate cleavage profiles were recorded at 490 nm every 10 sec for 10 min.

SHV-12 = SHV-12 (Klebsiella pneumoniae, UniProt P0AD64, E235K/G234S/L31Q); assay: as above; type: biochemical
Chain of SHV-12 (P0AD64 22-286 L31Q/G234S/E235K): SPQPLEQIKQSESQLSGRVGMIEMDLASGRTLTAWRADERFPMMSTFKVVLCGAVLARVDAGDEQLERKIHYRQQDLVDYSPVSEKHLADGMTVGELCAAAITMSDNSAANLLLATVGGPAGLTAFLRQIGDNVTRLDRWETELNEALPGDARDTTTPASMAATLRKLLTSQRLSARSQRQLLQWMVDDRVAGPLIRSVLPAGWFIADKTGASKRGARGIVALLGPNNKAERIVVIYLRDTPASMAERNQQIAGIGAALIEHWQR
Protocol: as §1

CMY-2 = CMY-2 (Klebsiella pneumoniae, UniProt Q48434); assay: as above; type: biochemical; conditions: nitrocefin reporter substrate; 10 min preincubation; read-out: Ki CMY-2, NCF
Chain of CMY-2 (Q48434 21-381, species assumed): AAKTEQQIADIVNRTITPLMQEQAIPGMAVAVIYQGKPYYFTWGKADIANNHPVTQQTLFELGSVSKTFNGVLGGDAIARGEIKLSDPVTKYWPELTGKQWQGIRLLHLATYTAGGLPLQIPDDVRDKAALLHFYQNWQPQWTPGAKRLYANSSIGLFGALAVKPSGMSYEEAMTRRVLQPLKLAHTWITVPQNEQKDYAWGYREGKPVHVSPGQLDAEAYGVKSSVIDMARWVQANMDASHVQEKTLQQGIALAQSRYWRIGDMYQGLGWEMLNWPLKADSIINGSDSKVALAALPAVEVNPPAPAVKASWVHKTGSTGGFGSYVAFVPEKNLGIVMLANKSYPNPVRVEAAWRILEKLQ
Protocol: as §1, with “min. These experiments confirmed that the described compounds are inhibitors with a broad-spectrum of activity towards various β-lactamases.” for “min.”

KPC-2 = KPC-2 (Klebsiella pneumoniae, UniProt Q9F663); assay: as above; type: biochemical; conditions: nitrocefin reporter substrate; 10 min preincubation; read-out: Ki KPC-2, NCF
Chain of KPC-2 (Q9F663 25-293, looked up, species assumed): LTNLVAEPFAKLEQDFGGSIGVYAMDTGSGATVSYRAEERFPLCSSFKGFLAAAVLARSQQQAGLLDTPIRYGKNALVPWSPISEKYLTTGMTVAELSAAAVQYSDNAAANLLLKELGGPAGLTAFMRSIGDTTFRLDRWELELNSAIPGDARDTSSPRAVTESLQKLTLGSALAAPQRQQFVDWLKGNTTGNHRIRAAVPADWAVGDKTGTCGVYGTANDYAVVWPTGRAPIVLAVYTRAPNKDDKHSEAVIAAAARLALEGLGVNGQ
Protocol: as §1, with “min. These experiments confirmed that the described compounds are inhibitors with a broad-spectrum of activity towards various β-lactamases.” for “min.”

OXA-48 = OXA-48 (Klebsiella pneumoniae, UniProt Q6XEC0); assay: as above; type: biochemical; conditions: nitrocefin reporter substrate; 10 min preincubation; read-out: Ki OXA-48, NCF
Chain of OXA-48 (Q6XEC0 23-265, looked up, species assumed): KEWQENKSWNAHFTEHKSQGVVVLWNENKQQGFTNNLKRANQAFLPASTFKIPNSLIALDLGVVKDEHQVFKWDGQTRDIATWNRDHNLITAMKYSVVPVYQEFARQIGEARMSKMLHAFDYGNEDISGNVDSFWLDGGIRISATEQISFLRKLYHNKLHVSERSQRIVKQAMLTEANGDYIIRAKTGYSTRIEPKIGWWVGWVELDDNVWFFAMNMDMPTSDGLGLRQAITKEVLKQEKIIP
Protocol: as §1, with “min. These experiments confirmed that the described compounds are inhibitors with a broad-spectrum of activity towards various β-lactamases.” for “min.”

P99 = P99 (Enterobacter cloacae, UniProt P05364); assay: biochemical; conditions: nitrocefin reporter substrate; 10 min preincubation; read-out: Ki P99, NCF
Chain of P99 (P05364 21-381): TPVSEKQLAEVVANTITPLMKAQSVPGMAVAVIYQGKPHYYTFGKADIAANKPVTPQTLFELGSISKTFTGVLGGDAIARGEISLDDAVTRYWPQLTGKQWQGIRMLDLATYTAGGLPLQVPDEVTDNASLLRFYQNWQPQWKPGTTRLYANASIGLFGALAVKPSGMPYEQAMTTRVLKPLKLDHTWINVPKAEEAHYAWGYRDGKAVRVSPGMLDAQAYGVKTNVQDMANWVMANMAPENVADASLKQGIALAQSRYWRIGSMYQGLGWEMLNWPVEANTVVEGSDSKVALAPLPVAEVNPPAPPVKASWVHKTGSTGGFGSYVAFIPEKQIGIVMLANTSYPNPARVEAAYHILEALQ
Protocol: as §1

PAM1032/KPC-2 = assay: Biapenem potentiation MPC64, efflux proficient strain; type: cell-based, Pseudomonas aeruginosa; set-up: unit not given here; conditions: efflux proficient (MexAB-OprM overexpressed); decrease biapenem MIC 64-fold, 32 to 0.5 μg/ml
Protocol: (§2) Efflux of BLIs from Pseudomonas aeruginosa by the MexAB-OprM efflux pump was also evaluated. The plasmid expressing the gene encoding KPC-2 was introduced into two strains of P. aeruginosa, PAM1032 and PAM1154 that overexpressed or lacked MexAB-OprM, respectively. Due to expression of KPC-2 both strains became resistant to biapenem. […] Potency of BLIs to potentiate biapenem in these strains was determined. […] The ratio of MPC64 values for each BLI in PAM1032/KPC-2 (efflux proficient) and PAM1154/KPC-2 (efflux deficient) was determined to generate the Efflux Index (EI).

PAM1154/KPC-2 = assay: Biapenem potentiation MPC64, efflux deficient strain; type: cell-based, Pseudomonas aeruginosa; set-up: unit not given here; conditions: efflux deficient (lacks MexAB-OprM); decrease biapenem MIC 64-fold, 32 to 0.5 μg/ml
Protocol: as §2

Oral pharmacokinetics = type: in vivo; conditions: rat, plasma, rats, n=3, read-out: Range of % Oral Bioavailability
Protocol: Several compounds were tested for their oral pharmacokinetics. Rats (n=3 per compound) were administered a single oral dose. Oral doses were administered as a bolus. Plasma (˜0.3 mL) samples were collected from each rat at designated time points up to 24 hours. Blood samples were centrifuged within 5 min of collection at 12000 g for 5 min to obtain plasma. The plasma samples were stored at −80° C. until analyzed. Data were analyzed using WinNonlin.

KP1004 (KPC-2) [15] = assay: Biapenem potentiation (MPC@1); conditions: biapenem 1 μg/mL
KP1086 (OXA-48) = assay: Biapenem potentiation (MPC@1); conditions: biapenem 1 μg/mL
ec302 (TEM-10) [16] = assay: Aztreonam potentiation (MPC@4); type: cell-based; conditions: aztreonam 4 μg/mL

Row | SMILES | MPC@4 aztreonam potentiation (KP1005 (CTX-M-14) [1]) | MPC@4 aztreonam potentiation (KP1009 (CTX-M-15) [2]) | MPC@4 aztreonam potentiation (ec308 (SHV-5) [3]) | MPC@4 aztreonam potentiation (KP1010 (SHV-12) [4]) | MPC@4 aztreonam potentiation (KP1004 (KPC-2) [5]) | MPC@4 aztreonam potentiation (ECL1002 [6]) | MPC@4 aztreonam potentiation (EC1010 (CMY-6) [7]) | MPC@4 tigemonam potentiation (KP1005 (CTX-M-14) [8]) | MPC@4 tigemonam potentiation (KP1009 (CTX-M-15) [9]) | MPC@4 tigemonam potentiation (ec308 (SHV-5) [10]) | MPC@4 tigemonam potentiation (KP1010 (SHV-12) [11]) | MPC@4 tigemonam potentiation (ec302 (TEM-10) [12]) | MPC@4 tigemonam potentiation (ECL1002 [13]) | MPC@4 tigemonam potentiation (EC1010 (CMY-6) [14]) | Ki (CTX-M-14) | Ki (SHV-12) | Ki (KPC-2) | Ki (OXA-48) | Ki (P99) | PAM1032/KPC-2 Biapenem MPC64 (PAM1032/KPC-2) | other results
1 | Cn1cnnc1SCC(=O)N[C@H]1CC=C[C@@H]2CC(=O)OB1O2 [Compound 5, 2-(4-METHYL-4H-1,2,4-TRIAZOL-3-YLTHIO)-N-((2R,6S)-8-OXO-9,10-DIOXA-1-BORABICYCLO[4.3.1]DEC-4-EN-2-YL)ACETAMIDE] | X (X = MPC@4 ≤ 5 μg/mL) | X (X = MPC@4 ≤ 5 μg/mL) | X (X = MPC@4 ≤ 5 μg/mL) | X (X = MPC@4 ≤ 5 μg/mL) | Y (Y = 5 μg/mL < MPC@4 ≤ 20 μg/mL) | X (X = MPC@4 ≤ 5 μg/mL) | X (X = MPC@4 ≤ 5 μg/mL) | X (X = MPC@4 ≤ 5 μg/mL) | X (key: X = MPC@4 ≤ 5 μg/mL; Y = 5 μg/mL < MPC@4 ≤ 20 μg/mL; Z = MPC@4 > 20 μg/mL) | X (X = MPC@4 ≤ 5 μg/mL) | X (key: X = MPC@4 ≤ 5 μg/mL; Y = 5 μg/mL < MPC@4 ≤ 20 μg/mL; Z = MPC@4 > 20 μg/mL) | Z (Z = MPC@4 > 20 μg/mL) | X (X = MPC@4 ≤ 5 μg/mL) | X (X = MPC@4 ≤ 5 μg/mL) | < 100 nM | < 100 nM | 100 to 1000 nM | 100 to 1000 nM | < 100 nM | 80 | Ki (CMY-2): < 100 nM; PAM1154/KPC-2 Biapenem MPC64 (PAM1154/KPC-2): 20; bioavailability (Oral pharmacokinetics; single oral dose 50 mg/kg): 2.5 to 3%; MPC@1 biapenem potentiation (KP1004 (KPC-2) [15]): X (X = MPC@1 ≤ 5 μg/mL); MPC@1 biapenem potentiation (KP1086 (OXA-48)): Z (Z = MPC@1 > 20 μg/mL)
2 | O=C(CSC(F)F)N[C@H]1CC=C[C@@H]2CC(=O)OB1O2 [Compound 3, 2-(DIFLUOROMETHYLTHIO)-N-((2R,6S)-8-OXO-9,10-DIOXA-1-BORABICYCLO[4.3.1]DEC-4-EN-2-YL)ACETAMIDE] | X (X = MPC@4 ≤ 5 μg/mL) | X (X = MPC@4 ≤ 5 μg/mL) | X (X = MPC@4 ≤ 5 μg/mL) | X (X = MPC@4 ≤ 5 μg/mL) | X (X = MPC@4 ≤ 5 μg/mL) | X (X = MPC@4 ≤ 5 μg/mL) | X (X = MPC@4 ≤ 5 μg/mL) | X (X = MPC@4 ≤ 5 μg/mL) | X (key: X = MPC@4 ≤ 5 μg/mL; Y = 5 μg/mL < MPC@4 ≤ 20 μg/mL; Z = MPC@4 > 20 μg/mL) | X (X = MPC@4 ≤ 5 μg/mL) | X (key: X = MPC@4 ≤ 5 μg/mL; Y = 5 μg/mL < MPC@4 ≤ 20 μg/mL; Z = MPC@4 > 20 μg/mL) | Y (Y = 5 μg/mL < MPC@4 ≤ 20 μg/mL) | X (X = MPC@4 ≤ 5 μg/mL) | X (X = MPC@4 ≤ 5 μg/mL) | < 100 nM | < 100 nM | 100 to 1000 nM | < 100 nM | < 100 nM | >80 | MPC@4 aztreonam potentiation (ec302 (TEM-10) [16]): X (X = MPC@4 ≤ 5 μg/mL); PAM1154/KPC-2 Biapenem MPC64 (PAM1154/KPC-2): 5; bioavailability (Oral pharmacokinetics; single oral dose 30 mg/kg): 28 to 54%; MPC@1 biapenem potentiation (KP1004 (KPC-2) [15]): X (X = MPC@1 ≤ 5 μg/mL); MPC@1 biapenem potentiation (KP1086 (OXA-48)): Z (Z = MPC@1 > 20 μg/mL)
